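Compound exposure: 48 hours, 5 concentrations, 96-well plates. The concentration for 50% growth inhibition is given as GI50. TGI: total growth inhibition.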
Key:
Test in all cases: NCI anticancer screen, dose series, 48 h
SF-295 CNS = system: SF-295 CNS
TK-10 renal = system: TK-10 renal
SF-268 CNS = system: SF-268 CNS
SK-MEL-5 melanoma = system: SK-MEL-5 melanoma
COLO 205 colon = system: COLO 205 colon
OVCAR-5 ovarian = system: OVCAR-5 ovarian
MDA-MB-435 = system: MDA-MB-435
PC-3 prostate = system: PC-3 prostate
BT-549 breast = system: BT-549 breast
K-562 leukemia = system: K-562 leukemia
HCT-116 colon = system: HCT-116 colon
HCT-15 colon = system: HCT-15 colon
MCF7 breast = system: MCF7 breast
A549 NSCLC = system: A549 NSCLC
MALME-3M melanoma = system: MALME-3M melanoma
SN12C renal = system: SN12C renal
786-0 renal = system: 786-0 renal
UACC-257 melanoma = system: UACC-257 melanoma
CCRF-CEM leukemia = system: CCRF-CEM leukemia
NCI/ADR-RES ovarian = system: NCI/ADR-RES ovarian
A498 renal = system: A498 renal
OVCAR-4 ovarian = system: OVCAR-4 ovarian
NCI-H23 lung = system: NCI-H23 lung
SK-MEL-2 melanoma = system: SK-MEL-2 melanoma
U251 CNS = system: U251 CNS
EKVX NSCLC = system: EKVX NSCLC
MOLT-4 leukemia = system: MOLT-4 leukemia
HCC-2998 colon = system: HCC-2998 colon
HOP-92 NSCLC = system: HOP-92 NSCLC
RXF 393 renal = system: RXF 393 renal
SNB-19 CNS = system: SNB-19 CNS
IGROV1 ovarian = system: IGROV1 ovarian
KM12 colon = system: KM12 colon
UO-31 renal = system: UO-31 renal
SNB-75 CNS = system: SNB-75 CNS
T-47D breast = system: T-47D breast
M14 melanoma = system: M14 melanoma
LOX IMVI melanoma = system: LOX IMVI melanoma
DU-145 prostate = system: DU-145 prostate
RPMI-8226 leukemia = system: RPMI-8226 leukemia
SK-MEL-28 melanoma = system: SK-MEL-28 melanoma
NCI-H226 lung = system: NCI-H226 lung
SK-OV-3 ovarian = system: SK-OV-3 ovarian
NCI-H522 lung = system: NCI-H522 lung
CAKI-1 renal = system: CAKI-1 renal
SF-539 CNS = system: SF-539 CNS
HT29 colon = system: HT29 colon
HL-60(TB) leukemia = system: HL-60(TB) leukemia
MDA-MB-231 breast = system: MDA-MB-231 breast
OVCAR-3 ovarian = system: OVCAR-3 ovarian
NCI-H460 lung = system: NCI-H460 lung
UACC-62 melanoma = system: UACC-62 melanoma
HOP-62 NSCLC = system: HOP-62 NSCLC
SW-620 colon = system: SW-620 colon
ACHN renal = system: ACHN renal
SR leukemia = system: SR leukemia
HS 578T breast = system: HS 578T breast
OVCAR-8 ovarian = system: OVCAR-8 ovarian

COc1ccc(/C=c2\sc3n(c2=O)C2C(NN=3)N(C)C(=O)N2C)cc1 (stereo unspecified)
GI50 (SF-295 CNS): 917 nM
TGI (SF-295 CNS): > 24500 nM
GI50 (TK-10 renal): > 100000 nM
TGI (TK-10 renal): > 100000 nM
GI50 (SF-268 CNS): > 100000 nM
TGI (SF-268 CNS): > 100000 nM
GI50 (SK-MEL-5 melanoma): 660 nM
TGI (SK-MEL-5 melanoma): > 100000 nM
GI50 (COLO 205 colon): 1090 nM
TGI (COLO 205 colon): > 100000 nM
GI50 (OVCAR-5 ovarian): 2250 nM
TGI (OVCAR-5 ovarian): > 100000 nM
GI50 (MDA-MB-435): 200 nM
TGI (MDA-MB-435): 759 nM
GI50 (PC-3 prostate): 444 nM
TGI (PC-3 prostate): > 100000 nM
GI50 (BT-549 breast): 589 nM
TGI (BT-549 breast): > 100000 nM
GI50 (K-562 leukemia): 331 nM
TGI (K-562 leukemia): > 100000 nM
GI50 (HCT-116 colon): 483 nM
TGI (HCT-116 colon): > 100000 nM
GI50 (HCT-15 colon): 428 nM
TGI (HCT-15 colon): > 100000 nM
GI50 (MCF7 breast): 384 nM
TGI (MCF7 breast): > 100000 nM
GI50 (A549 NSCLC): 1350 nM
TGI (A549 NSCLC): > 100000 nM
GI50 (MALME-3M melanoma): 1190 nM
TGI (MALME-3M melanoma): > 100000 nM
GI50 (SN12C renal): 1630 nM
TGI (SN12C renal): > 100000 nM
GI50 (786-0 renal): 492 nM
TGI (786-0 renal): > 100000 nM
GI50 (UACC-257 melanoma): > 100000 nM
TGI (UACC-257 melanoma): > 100000 nM
GI50 (CCRF-CEM leukemia): 426 nM
TGI (CCRF-CEM leukemia): > 100000 nM
GI50 (NCI/ADR-RES ovarian): 579 nM
TGI (NCI/ADR-RES ovarian): > 40900 nM
GI50 (A498 renal): 113 nM
TGI (A498 renal): 1490 nM
GI50 (OVCAR-4 ovarian): > 100000 nM
TGI (OVCAR-4 ovarian): > 100000 nM
GI50 (NCI-H23 lung): 1750 nM
TGI (NCI-H23 lung): > 100000 nM
GI50 (SK-MEL-2 melanoma): 2310 nM
TGI (SK-MEL-2 melanoma): > 100000 nM
GI50 (U251 CNS): 1440 nM
TGI (U251 CNS): > 100000 nM
GI50 (EKVX NSCLC): 1720 nM
TGI (EKVX NSCLC): > 100000 nM
GI50 (MOLT-4 leukemia): 1240 nM
TGI (MOLT-4 leukemia): > 100000 nM
GI50 (HCC-2998 colon): 1500 nM
TGI (HCC-2998 colon): > 100000 nM
GI50 (HOP-92 NSCLC): 513 nM
TGI (HOP-92 NSCLC): > 100000 nM
GI50 (RXF 393 renal): 603 nM
TGI (RXF 393 renal): 2750 nM
GI50 (SNB-19 CNS): 1300 nM
TGI (SNB-19 CNS): > 100000 nM
GI50 (IGROV1 ovarian): 1320 nM
TGI (IGROV1 ovarian): > 100000 nM
GI50 (KM12 colon): 588 nM
TGI (KM12 colon): > 100000 nM
GI50 (UO-31 renal): 1860 nM
TGI (UO-31 renal): > 100000 nM
GI50 (SNB-75 CNS): 1170 nM
TGI (SNB-75 CNS): 6770 nM
GI50 (T-47D breast): 1560 nM
TGI (T-47D breast): > 100000 nM
GI50 (M14 melanoma): 344 nM
TGI (M14 melanoma): 5170 nM
GI50 (LOX IMVI melanoma): 1630 nM
TGI (LOX IMVI melanoma): > 100000 nM
GI50 (DU-145 prostate): 1320 nM
TGI (DU-145 prostate): > 100000 nM
GI50 (RPMI-8226 leukemia): 455 nM
TGI (RPMI-8226 leukemia): > 19600 nM
GI50 (SK-MEL-28 melanoma): 2270 nM
TGI (SK-MEL-28 melanoma): > 100000 nM
GI50 (NCI-H226 lung): 1180 nM
TGI (NCI-H226 lung): > 100000 nM
GI50 (SK-OV-3 ovarian): 2130 nM
TGI (SK-OV-3 ovarian): > 100000 nM
GI50 (NCI-H522 lung): 877 nM
TGI (NCI-H522 lung): > 100000 nM
GI50 (CAKI-1 renal): 563 nM
TGI (CAKI-1 renal): > 100000 nM
GI50 (SF-539 CNS): 780 nM
TGI (SF-539 CNS): 6040 nM
GI50 (HT29 colon): 560 nM
TGI (HT29 colon): > 100000 nM
GI50 (HL-60(TB) leukemia): 501 nM
TGI (HL-60(TB) leukemia): 1960 nM
GI50 (MDA-MB-231 breast): 2770 nM
TGI (MDA-MB-231 breast): > 100000 nM
GI50 (OVCAR-3 ovarian): 481 nM
TGI (OVCAR-3 ovarian): 3530 nM
GI50 (NCI-H460 lung): 933 nM
TGI (NCI-H460 lung): > 100000 nM
GI50 (UACC-62 melanoma): 578 nM
TGI (UACC-62 melanoma): > 100000 nM
GI50 (HOP-62 NSCLC): 1290 nM
TGI (HOP-62 NSCLC): > 100000 nM
GI50 (SW-620 colon): 747 nM
TGI (SW-620 colon): > 100000 nM
GI50 (ACHN renal): 1530 nM
TGI (ACHN renal): > 100000 nM
GI50 (SR leukemia): 316 nM
TGI (SR leukemia): > 100000 nM
GI50 (HS 578T breast): 659 nM
TGI (HS 578T breast): 8960 nM
GI50 (OVCAR-8 ovarian): 1750 nM
TGI (OVCAR-8 ovarian): > 100000 nM
